According to publication PMC8125951, “Exploring the 2′-Hydroxy-Chalcone Framework for the Development of Dual Antioxidant and Soybean Lipoxygenase Inhibitory Agents” (Molecules, 2021):

How the values were obtained:
[1] = Competition of the tested compounds with DMSO for hydroxyl radicals; settings: 100 μM
Source text: Among the reactive oxygen species (ROS), the hydroxyl (^•OH) free radical is possibly the most toxic, reacting with several biological important molecules such as DNA, lipids, or carbohydrates. Polyunsaturated fatty acids are particularly vulnerable by free radicals. Iron released from damaged cells is more likely to be readily available to catalyze the generation of ^•OH radicals. Thus, we tried to test the ability of our compounds to scavenge hydroxyl radicals determining the competition of selected chalcones and aurones with DMSO for hydroxyl radicals. Hydroxyl radicals were generated using the Fe^3+/ascorbic acid system and expressed as a percentage inhibition of formaldehyde production in the presence of each compound at 100 μM.
The hydroxyl radicals generated by the Fe^3+ / ascorbic acid system, were detected by the determination of formaldehyde produced from the oxidation of DMSO (Table 2). A negative control using the same % DMSO was used. Trolox was used as reference compound [75].

[2] = Interaction with the stable free radical DPPH (reducing activity)
Description: The first assay refers to the interaction of the compounds with the stable free radical DPPH and it is a fast, simple, cost-effective, and widely used method, where the DPPH radical reacts directly with the antioxidant and is decolorized. This interaction indicates their radical scavenging ability in an iron-free system. The scavenging effect of the synthesized analogues on the DPPH radical was evaluated according to the methods of Hadjipavlou et al..
To an ethanolic solution of DPPH (100 μM) in absolute ethanol, an equal volume of the compounds dissolved in DMSO was added (100 μM). […]

[3] = ABTS radical cation decolorization assay; settings: 100 μM
Description: The ABTS radical cation decolorization assay was used as another antioxidant activity estimation protocol (Table 2). Oxidation of ABTS with potassium persulfate generates directly the radical with no involvement of an intermediate radical, which is then reduced upon adding electron-donating antioxidants.
In order to produce the ABTS radical cation (ABTS^+·), ABTS stock solution in water (7 mM) was mixed with potassium persulfate (2.45 mM) and left in the dark at room temperature for 12–16 h before use. Our published experimental technique was used (1). The results are recorded after 1 min of the mixing solutions at 734 nm. The results were compared to the appropriate standard inhibitor Trolox.

soybean lipoxygenase = target: T1, soybean lipoxygenase (Glycine max, UniProt P08170); assay: Soybean LOX inhibition study in vitro; type: biochemical; settings: for inhibition at 100 µM: read-out: Inhibition of Soybean Lipoxygenase 100 μM (%); for IC50: read-out: Inhibition of Soybean Lipoxygenase IC50
T1 sequence (P08170 1-839): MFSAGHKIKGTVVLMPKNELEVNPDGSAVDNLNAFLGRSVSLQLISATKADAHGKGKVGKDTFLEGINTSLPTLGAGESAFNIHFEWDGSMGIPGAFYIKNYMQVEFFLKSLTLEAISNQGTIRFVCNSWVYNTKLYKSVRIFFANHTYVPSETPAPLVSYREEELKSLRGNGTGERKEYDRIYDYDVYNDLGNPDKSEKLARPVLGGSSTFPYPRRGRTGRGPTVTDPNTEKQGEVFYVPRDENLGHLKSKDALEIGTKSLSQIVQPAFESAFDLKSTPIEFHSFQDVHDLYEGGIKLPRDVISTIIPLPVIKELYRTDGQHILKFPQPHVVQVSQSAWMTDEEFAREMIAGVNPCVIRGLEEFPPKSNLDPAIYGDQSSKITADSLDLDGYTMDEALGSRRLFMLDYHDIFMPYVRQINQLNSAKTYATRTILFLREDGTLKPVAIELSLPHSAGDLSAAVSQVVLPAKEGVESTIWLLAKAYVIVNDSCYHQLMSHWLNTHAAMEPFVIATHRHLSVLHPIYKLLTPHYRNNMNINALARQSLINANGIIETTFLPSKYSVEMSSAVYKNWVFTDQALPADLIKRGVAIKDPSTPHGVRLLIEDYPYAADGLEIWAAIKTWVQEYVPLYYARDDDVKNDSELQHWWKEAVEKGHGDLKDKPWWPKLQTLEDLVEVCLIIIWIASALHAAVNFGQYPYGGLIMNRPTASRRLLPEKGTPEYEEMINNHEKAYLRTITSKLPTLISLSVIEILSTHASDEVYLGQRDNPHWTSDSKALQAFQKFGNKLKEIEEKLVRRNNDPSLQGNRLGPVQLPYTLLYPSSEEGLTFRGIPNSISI
Description: Furthermore, as an indication of their anti-inflammatory activity, all the molecules were tested as inhibitors of soybean lipoxygenase (LOX). The enzyme lipoxygenase catalyzes the first two steps in the metabolism of arachidonic acid, which is cleaved from membrane phospholipids to leukotrienes (LTB4). LTB4 generation is considered to be important in the pathogenesis of neutrophil-mediated inflammatory diseases. For this study, the UV absorbance-based soybean LOX assay was used, which is a plant enzyme with satisfactory homology with the human 5-LOX [61, 62, 63, 64, 65, 66].
The tested compounds dissolved in DMSO were incubated at room temperature with sodium linoleate (0.1 mL) and 0.2 mL of enzyme solution ([…] in saline) in Tris buffer pH 9.

[4] = Inhibition of linoleic acid lipid peroxidation induced by AAPH
Source text: The second technique is based on the ability of the compounds to inhibit lipid peroxidation of linoleic acid induced by 2,2′-Azobis(2-amidinopropane) dihydrochloride (AAPH) radical (Table 2). AAPH-induced linoleic acid oxidation has been developed as a quick and reliable method for measuring the antioxidant activity. The thermal free radical producer (AAPH) generates free radicals in the solution which cause the oxidation of linoleic acid, and the method is a measure of how effective antioxidants protect against lipid peroxidation in vitro. Oxidation of linoleic acid by AAPH is followed by UV spectrophotometry in a highly diluted sample [61].
2,2′-Azobis(2-amidinopropane) dihydrochloride (AAPH) was used as a free radical initiator. Ten microliters of the 16 mM linoleic acid sodium salt solution was added to the UV cuvette containing 0.93 mL of 0.05 M phosphate buffer, pH 7.4 prethermostated at 37 °C. The oxidation reaction was initiated at 37 °C under air by the addition of 50 μL of 40 mM AAPH solution. Oxidation was carried out in the presence of the synthesized compounds (10 μL, from a stock solution of 10 mM in DMSO). In the assay without antioxidant, lipid oxidation was measured in the presence of the same level of DMSO.

SMILES | inhibition at 100 µM (soybean lipoxygenase; at 100 μM) [%] | IC50 (soybean lipoxygenase) [µM] | Inhibition of Soybean Lipoxygenase 100 μM (%) (soybean lipoxygenase; at 100 μM) | HO· (%) competition with DMSO for hydroxyl radicals [1] | Interaction with the Free Radical DPPH (%) ([2]; 0 min) | Interaction with the Free Radical DPPH (%) ([2]; 100 μM, 20 min) | Interaction with the Free Radical DPPH (%) ([2]; 100 μM, 60 min) | Interaction with the Free Radical DPPH (%) ([2]; 3 min) | Interaction with the Free Radical DPPH (%) ([2]; 6 min) | Interaction with the Free Radical DPPH (%) ([2]; 9 min) | ABTS+· % [3] | Inhibition of Lipid Peroxidation of Linoleic Acid Induced by AAPH Radical (%) ([4]; 100 μM) | Inhibition of Lipid Peroxidation of Linoleic Acid Induced by AAPH Radical (%) ([4]; 0 min) | Inhibition of Lipid Peroxidation of Linoleic Acid Induced by AAPH Radical (%) ([4]; 3 min) | Inhibition of Lipid Peroxidation of Linoleic Acid Induced by AAPH Radical (%) ([4]; 6 min) | Inhibition of Lipid Peroxidation of Linoleic Acid Induced by AAPH Radical (%) ([4]; 9 min)
O=C(/C=C/c1ccc(O)c(O)c1)c1ccc(O)cc1O [Compound 4a, 2′,3,4,4′-tetrahydroxy-chalcone] | 39.3 |  |  | 68% | 95.4 | 95.7% | 95.3% | 95.4 | 94.9 | 95.4 | 86% | 24.4 |  |  |  | 
COc1cc(OC)c(OC)cc1/C=C/C(=O)c1ccccc1O [Compound 3b, 2′-hydroxy-2,4,5-trimethoxy-chalcone] |  | 75 |  | no |  | no | no |  |  |  |  | 67.3 |  |  |  | 
O=C(/C=C/c1ccc(O)c(O)c1)c1cc(Br)ccc1O [Compound 4b, 5′-bromo-2′,3,4-trihydroxy-chalcone] |  | 70 |  | 100% |  | 82.4% | 82.0% |  |  |  | inactive and no | 82.3 | 81.8 | 82.6 | 82.5 | 81.5
Cc1c(C)c2c(c(C)c1O)CCC(C)(C(=O)O)O2 (centres unmarked) [Trolox, reference compound] |  |  |  | 82% |  | 93.0% | 93.6% |  |  |  | 93% | 92.0 |  |  |  | 
COCOc1ccc(C(=O)/C=C/c2ccc(OCOC)c(OCOC)c2)c(O)c1 [Compound 3a, 2′-hydroxy-4′,3,4-methoxymethoxy-chalcone] | 40.2 |  |  | 40% |  |  | 21.6% |  |  |  | 93% | 11.4 |  |  |  | 
COC(=O)c1ccc(/C=C/C(=O)c2ccccc2O)cc1 [Compound 5, 4-Methoxycarbonyl-2′-Hydroxy-Chalcone] |  | 100 |  |  |  | no | no |  |  |  |  | 100 | 95.4 | 96.9 | 92.5 | 98.9

Continued, in another order:

inhibition at 100 µM (soybean lipoxygenase; at 100 μM) [%] | IC50 (soybean lipoxygenase) [µM] | Inhibition of Soybean Lipoxygenase 100 μM (%) (soybean lipoxygenase; at 100 μM) | SMILES | HO· (%) competition with DMSO for hydroxyl radicals [1] | Interaction with the Free Radical DPPH (%) ([2]; 0 min) | Interaction with the Free Radical DPPH (%) ([2]; 100 μM, 20 min) | Interaction with the Free Radical DPPH (%) ([2]; 100 μM, 60 min) | Interaction with the Free Radical DPPH (%) ([2]; 3 min) | Interaction with the Free Radical DPPH (%) ([2]; 6 min) | Interaction with the Free Radical DPPH (%) ([2]; 9 min) | ABTS+· % [3] | Inhibition of Lipid Peroxidation of Linoleic Acid Induced by AAPH Radical (%) ([4]; 100 μM) | Inhibition of Lipid Peroxidation of Linoleic Acid Induced by AAPH Radical (%) ([4]; 0 min) | Inhibition of Lipid Peroxidation of Linoleic Acid Induced by AAPH Radical (%) ([4]; 3 min) | Inhibition of Lipid Peroxidation of Linoleic Acid Induced by AAPH Radical (%) ([4]; 6 min) | Inhibition of Lipid Peroxidation of Linoleic Acid Induced by AAPH Radical (%) ([4]; 9 min)
24.5 |  |  | O=C1/C(=C/c2ccc(O)c(O)c2)Oc2cc(O)ccc21 [Compound 7a, 3′,4′,6-Trihydroxy-Aurone] | inactive and no | 92.3 | 89% | 91.2% | 94.4 | 94.9 | 94.9 | 71% | 53.2 |  |  |  | 
13 |  |  | COc1cc(OC)c(OC)cc1/C=C1\Oc2ccccc2C1=O [Compound 6b, 2′,4′,5′-trimethoxy-aurone] | no |  | no interaction and did not show any DPPH radical scavenging ability and no | no |  |  |  | 64% | 29.4 |  |  |  | 
 |  | no | O=C1/C(=C/c2cc(O)c(O)cc2O)Oc2ccccc21 [Compound 7b, 2′,4′,5′-Trihydroxy-Aurone] | 77% | 98.2 | 100% | 100% | 99.3 | 99.5 | 99.8 | no |  |  |  |  | 
24.4 |  |  | COCOc1ccc2c(c1)O/C(=C\c1ccc(OCOC)c(OCOC)c1)C2=O [Compound 6a, 3′,4′,6-tri(methoxymethoxy)-aurone] | 43% |  | no interaction and did not show any DPPH radical scavenging ability and no | no |  |  |  | 86% | 18.5 |  |  |  | 
